Where two headings read alike, the source gives them in different places.
How the values were obtained:
Human CB1 receptor [1] = molecular target: T1, Human CB1 receptor (Homo sapiens, UniProt P21554); assay: hCB1 receptor binding (3H-CP55,940 displacement)
T1 construct: purchased Receptor Biology
Protocol: Human CB1 receptor from Receptor Biology (hCB1) or human CB2 receptor from BioSignal (hCB2) membranes are thawed at 37° C., passed 3 times through a 25-gauge blunt-end needle, diluted in the cannabinoid binding buffer (50 mM Tris, 2.5 mM EDTA, 5 mM MgCl2, and 0.5 mg/mL BSA fatty acid free, pH 7.4) and aliquots containing the appropriate amount of protein are distributed in 96-well plates. The IC50 of the compounds of the invention at hCB1 and hCB2 are evaluated from 10-point dose-response curves done with ^3H-CP55,940 at 20000 to 25000 dpm per well (0.17-0.21 nM) in a final volume of 300 μl. The total and non-specific binding are determined in the absence and presence of 0.2 μM of HU210 respectively. The plates are vortexed and incubated for 60 minutes at room temperature, filtered through Unifilters GF/B (presoaked in 0.1% polyethyleneimine) with the Tomtec or Packard harvester using 3 mL of wash buffer (50 mM Tris, 5 mM MgCl2, 0.5 mg BSA pH 7.0). The filters are dried for 1 hour at 55° C. The radioactivity (cpm) is counted in a TopCount (Packard) after adding 65 μl/well of MS-20 scintillation liquid.
Based on the above assays, the dissociation constant (Ki) for a particular compound of the invention towards a particular receptor is determined using the following equation: […]
Wherein IC50 is the concentration of the compound of the invention at which 50% displacement has been observed;
[rad] is a standard or reference radioactive ligand concentration at that moment; and
Kd is the dissociation constant of the radioactive ligand towards the particular receptor.

Human CB1 receptor [2] = molecular target: T1, Human CB1 receptor; assay: hCB1 GTPγS binding; format: biochemical; conditions: for Emax: maximal stimulation defined by 10 μM Win 55,212-2
Protocol: Human CB1 receptor from Receptor Biology (hCB1) or human CB2 receptor membranes (BioSignal) are thawed at 37° C., passed 3 times through a 25-gauge blunt-end needle and diluted in the GTPγS binding buffer (50 mM Hepes, 20 mM NaOH, 100 mM NaCl, 1 mM EDTA, 5 mM MgCl2, pH 7.4, 0.1% BSA). The EC50 and Emax of the compounds of the invention are evaluated from 10-point dose-response curves done in 300 μl with the appropriate amount of membrane protein and 100000-130000 dpm of GTPg^35S per well (0.11-0.14 nM). The basal and maximal stimulated binding is determined in absence and presence of 1 μM (hCB2) or 10 μM (hCB1) Win 55,212-2 respectively. The membranes are pre-incubated for 5 minutes with 56.25 μM (hCB2) or 112.5 μM (hCB1) GDP prior to distribution in plates (15 μM (hCB2) or 30 μM (hCB1) GDP final). The plates are vortexed and incubated for 60 minutes at room temperature, filtered on Unifilters GF/B (presoaked in water) with the Tomtec or Packard harvester using 3 ml of wash buffer (50 mM Tris, 5 mM MgCl2, 50 mM NaCl, pH 7.0). The filters are dried for 1 hour at 55° C. The radioactivity (cpm) is counted in a TopCount (Packard) is after adding 65 μl/well of MS-20 scintillation liquid. Antagonist reversal studies are done in the same way except that (a) an agonist dose-response curve is done in the presence of a constant concentration of antagonist, or (b) an antagonist dose-response curve is done in the presence of a constant concentration of agonist.

[3] = hCB1 membranes, 3H-CP55,940, Ki=IC50/(1+[rad]/Kd), read-out: Ki (hCB1)
[4] = hCB1 membranes, GTPγ35S, read-out: EC50 (hCB1)

T1 sequence (P21554 whole entry): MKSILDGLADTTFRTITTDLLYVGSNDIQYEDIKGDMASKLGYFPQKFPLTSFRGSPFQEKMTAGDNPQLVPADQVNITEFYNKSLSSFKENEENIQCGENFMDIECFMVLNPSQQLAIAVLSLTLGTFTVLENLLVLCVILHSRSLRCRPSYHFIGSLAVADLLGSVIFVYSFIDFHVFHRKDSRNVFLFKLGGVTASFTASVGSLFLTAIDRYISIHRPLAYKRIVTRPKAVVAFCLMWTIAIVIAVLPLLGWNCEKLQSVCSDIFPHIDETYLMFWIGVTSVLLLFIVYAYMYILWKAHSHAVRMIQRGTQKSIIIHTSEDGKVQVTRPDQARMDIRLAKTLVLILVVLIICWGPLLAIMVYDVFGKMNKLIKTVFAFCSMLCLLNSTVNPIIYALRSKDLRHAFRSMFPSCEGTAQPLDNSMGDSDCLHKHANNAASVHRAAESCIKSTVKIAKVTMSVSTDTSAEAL

| Structure (SMILES) | Ki (Human CB1 receptor [1]; [3]) [nM] | EC50 (Human CB1 receptor [2]; [4]) [nM] | Emax (Human CB1 receptor [2]; hCB1 membranes) [%] | Ki (Human CB1 receptor [1]) [nM] | EC50 (Human CB1 receptor [2]) [nM] |
| --- | --- | --- | --- | --- | --- |
| Cc1ccc(C(=O)Nc2ccc[n+]([O-])c2C(=O)NCC2CCC2)c2ccccc12 [Example 2, N-(Cyclobutylmethyl)-3-[[(4-methyl-1-naphthalenyl)carbonyl]amino]-1-oxide-2-pyridinecarboxamide] | 18 | 167 | 106 | – | – |
| O=C(Nc1ccc[n+]([O-])c1C(=O)NCC1CCCCC1)c1cccc2ccccc12 [Example 7, N-(Cyclohexylmethyl)-3-[(1-naphthalenylcarbonyl)amino]-1-oxide-2-pyridinecarboxamide] | – | – | 128 | 47 | 506 |
| Cc1ccc(C(=O)Nc2ccc[n+]([O-])c2C(=O)NCC2CCCCC2)c2ccccc12 [Example 8, N-(Cyclohexylmethyl)-3-[(4-methyl-1-naphthalenylcarbonyl)amino]-1-oxide-2-pyridinecarboxamide] | 42 | 191 | 122 | – | – |

Reference: US20070219254A1, “Therapeutic Compounds: Pyridine N-Oxide Scaffold” (priority 2004, published 2007)
